≈ marks a conversion by molar mass, not a printed value. Some results are limits rather than exact numbers.

In one series the test system is housefly adults. The experiment in a line: Oil spray, Campbel's turn table, lethal concentration (Test Example 2). The class given is in vivo. The following applies: Musca domestica, 24 h. On the procedure: A group of about 100 housefly adults was exposed to descending spray for 10 minutes, thereafter was transferred to an observation cage, was fed, and was allowed to stand at room temperature.
After a day, the dead and alive were counted to calculate the lethal ratio.

A further series deals with adult leafhoppers. The experiment in a line: Granule applied to rice plants in Wagner pot (Example XIII). Format: in vivo, leafhopper. The following applies: granule of Example W, 10 kg/10 ares. How it is done:
Rice plants at the tillering stage were grown in Wagner pots, and the depth of water was kept at 5 cm.
The present compound (4) obtained in Example W was put into the Wagner pot with 10 kg/10 ares, and the said pot was covered with a wire cage into which 20 adult leafhoppers were released.

Series [1] deals with larvae of tobacco cut worm, diamondback moth and common cabbage worms. The experiment in a line: Fumigation of Chinese cabbages in vinyl house with heated wettable powder (Example XIV). The class given is in vivo. Particulars: 10 grams of 40% wettable powder per 30 m^2 compartment. The text has this: In the vinyl house, the Chinese cabbages were cultivated and the leaves were parasitized with the larvae of tobacco cut worm, diamondback moth and common cabbage worms.
The vinyl house (its height was 2 m) was divided into compartments of 30 m^2 in area and 10 grams of the present compound (1, 4) in the form of 40% wettable powder was put into the plate heated by fire.

The test system of series [2] is 3rd or 4th instar larvae of tobacco cut worm. The series is described as follows: Diluted emulsion sprayed by settling tower on larvae (Example X). The class given is in vivo. The following applies: emulsion diluted to 50 times, 1 ml. On the procedure:
Ten of the 3rd or 4th instar larvae of tobacco cut worm were put into a petri dish of 17 cm in diameter.
One ml of the present compound (4, 11, 28, 92, 94, 95, 109, 111) in form of an emulsion obtained in Example X, which were diluted to 50 times with water, were sprayed by means of a settling tower. The said larvae were removed into another petri dish with the leaves of the chinese cabbage leaves. Observation was made after 48 hrs. As a result, more than 90% of the larvae were dead in each case.

The subject of a further series is adults of houseflies. The series is described as follows: Oil preparation sprayed on Campbell's turn table (Example XX). The following applies: Musca domestica, 24 h; Table 6; 1% oil preparation 5 ml, 10 minutes exposure, next day. Format: in vivo, housefly. How it is done: The oil preparation obtained as in Example B (5 ml) was sprayed by the use of a Campbell's turn table [Soap & Sanitary Chemicals, Vol. 14, No. 6, 119 (1938) ] on 100 adults of houseflies were exposed to the spray for 10 minutes. The houseflies were then allowed to stand with feeding. On the next day, dead and alive were observed.

A further series concerns adult planthoppers. The experiment in a line: Residual effect on sprayed rice seedlings (Example XV). Format: in vivo. The following applies: concentrate diluted to 400 times; observed 24 hours after release. On the procedure: About 20 rice seedlings, cultivated for 20 days after sowing in a flower pot of 8.5 cm in diameter, were sprayed with each of the emulsifiable concentrates obtained as in Example X which were diluted to 400 times with water. After air-drying, each pot was covered with a wire cage, into which 20 adult planthoppers were released as time elapsed. And the observation was made after 24 hours.

The test system of the next series is tobacco cut worm. The experiment in a line: Dust on Chinese cabbages in the field (Example XVIII). Format: in vivo. Particulars: 5% dust, 3kg/10 ares, for 2 months. The text has this:
Each 5% dust of the present compounds 31, 32, 62, 63 was spread in a ratio of 3kg/10 ares on the Chinese cabbages of 40 days after sowing in the field. And about 9,000 eggs of tobacco cut worm were put on the leaves of the Chinese cabbages per 10 ares every 5 days for a month.

Series [3] is described as follows: Oral acute toxicity in male mice (Example XXI). The following applies: mouse, in vivo, Table 7, male mice of about 20 g. The text has this:
An emulsion prepared by diluting with water the present compounds 31, 32, 33, 34, 35, 46, 63, in the form of an emulsifiable concentrate was orally administrated to male mice of about 20 g in body weight.

Series [4] relates to Full grown larvae of the Northern house mosquito. The series is described as follows: Larvicidal test in beaker with diluted emulsifiable concentrate (Example XIX). The class given is in vivo. Particulars: Table 5; after 24 hours. On the procedure: 30 Full grown larvae of the Northern house mosquito were released into the beaker with 200 ml of dilution of each emulsifiable concentrates which obtained in Example X.

The test system of series [5] is leafhoppers of resistant and susceptible strains. The series is described as follows: Emulsion sprayed on rice seedlings, leafhoppers released (Example XVI). The class given is in vivo, leafhopper. The following applies: emulsion diluted to 50 times. On the procedure: About 20 rice seedlings, cultivated for 20 days after sowing in a flower pot of 8.5 cm in diameter were sprayed with each of the present compounds (31, 32, 35, 39, 40, 42, 45, 48, 55, 59, 60, 63, 131 - 134, 139) in the form of an emulsion which were diluted to 50 times. Each pot was put into the beaker and covered with gauze, into which leafhoppers of resistant and susceptible strains, respectively, were released in each beaker. And the number of knocked down insects after 1 hour and the mortality after 24 hours were counted. As a result, the knock down per centage was more than 50% and the mortality was more than 80% in each case.

Regarding `C#CC(OC(=O)C1C(C=C(C)C)C1(C)C)C(C)=CCC` (centres unmarked) [Compound 4, 1-Ethynyl-2-methyl-2-pentenyl chrysanthemate], the LC50 with housefly adults is 1400 µg/mL (≈ 5.1 mM). Moreover, in the series on adult leafhoppers, the “leafhoppers dead after 24 hrs” value is recorded as “more than 90%”. Further, the “increasing of the damage” value in [1] is on record as “the increasing of the damage was not found”. Besides, the “larvae dead after 48 hrs” value in series [2] was “more than 90%”.
As for `C#CC(C=Cc1ccccc1)OC(=O)C1C(C=C(C)C)C1(C)C` (stereo not drawn) [Compound 31, α-Ethynylcinnamyl chrysanthemate], the mortality at 1 % with adults of houseflies came to 92%. Further, in the series on adult planthoppers, the “Mortality (%) After 1 day” value is recorded as 100% and the “Mortality (%) After 6 days” value was 75.8%. In the series with tobacco cut worm, the “damage of the Chinese cabbages by tobacco cut worms” value is on record as “the damage of the Chinese cabbages by tobacco cut worms was not found”. The same compound displayed an LD50 at 48 h in series [3] of over 500 mg/kg. Besides, the median lethal concentration (LC50) in series [4] is reported as 0.12 ppm. Also, in series [5], the “knock down percentage after 1 hour” value is reported as “more than 50%” and the “mortality after 24 hours” value is “more than 80%”.
`C#CC(C=CC)OC(=O)C1C(C=C(C)C)C1(C)C` (centres unmarked) [Compound 1, 1-Ethynyl-2-butenyl chrysanthemate]: in the series on housefly adults, the LC50 was 5500 µg/mL (≈ 22.3 mM). In addition, the “increasing of the damage” value in series [1] was “the increasing of the damage was not found”.

One may read the LC50 as the concentration lethal to half of the exposed cells or organisms. A higher LC50 goes with a less lethal substance. By mortality is commonly meant the percentage killed. A lower mortality goes with more survivors. A word on the LD50: it is the dose expected to kill half of the subjects tested. A lower LD50 goes with a more toxic substance.
